The source made the active and inactive calls. The calls are words filed in the database; no cut-off is given here.
Key:
Musca domestica [1] = test: Insecticidal activity against Musca domestica (housefly) assessed as paralysis at 28 degC measured per fly after 24 hr; format: functional
Musca domestica [2] = test: Insecticidal activity against Musca domestica (housefly) assessed as paralysis at 28 degC measured after 24 hr at 10 ug topically; format: functional, organism-based

Row | Structure (SMILES) | LD50 (Musca domestica [1]) | Activity (Musca domestica [2])
1 | CCCCOc1ccc(OC)c([C@H]2OC[C@]3(O)[C@@H](Oc4c(OC)cccc4OC)OC[C@H]23)c1 (racemic) | 8 µg | 
2 | COCCOCCOc1ccc(OC)c([C@H]2OC[C@]3(O)[C@@H](Oc4c(OC)cccc4OC)OC[C@H]23)c1 (racemic) |  | Active
3 | COc1ccc(O[Si](C)(C)C(C)(C)C)cc1[C@H]1OC[C@]2(O[Si](C)(C)C(C)(C)C)C(Oc3c(OC)cccc3OC)OC[C@H]12 (mixture of isomers) |  | inactive
4 | COCCOc1ccc(OC)c([C@H]2OC[C@]3(O)[C@@H](Oc4c(OC)cccc4OC)OC[C@H]23)c1 (racemic) |  | Active
5 | COc1ccc(O)cc1[C@H]1OC[C@]2(O)[C@H](Oc3c(OC)cccc3OC)OC[C@H]12 (racemic) |  | inactive
6 | COCCOc1ccc(OC)c([C@H]2OC[C@]3(O)[C@H](Oc4c(OC)cccc4OC)OC[C@H]23)c1 (racemic) |  | inactive
7 | COc1ccc(O)cc1[C@H]1OC[C@]2(O[Si](C)(C)C(C)(C)C)[C@@H](Oc3c(OC)cccc3OC)OC[C@H]12 (racemic) |  | inactive
8 | COc1ccc(OCc2ccc3c(c2)OCO3)cc1[C@H]1OC[C@]2(O)[C@@H](Oc3c(OC)cccc3OC)OC[C@H]12 (racemic) |  | inactive
